Literature values, collected in US20200113856A1, “NON-PRESCRIPTION MOTION SICKNESS MEDICATION CONTAINING AN ANALGESIC, AN H2 BLOCKER, AND AT LEAST ONE ANTACID” (priority 2018, published 2020).
Blank lines part the entries; values can stand above or below the molecule they belong to.

What was measured:
risk of stroke = conditions: in vivo
platelet thromboxane = conditions: high-dose, throughout the dosing interval
motion sickness = conditions: patch worn behind the ear
blood pressure = conditions: several types of rat models susceptible to salt-sensitive hypertension, in contrast with sodium chloride
histamine H2 receptors = histamine H2 receptors (Homo sapiens, UniProt P25021); conditions: equimolar basis
histamine H2 receptors, sequence (P25021 whole entry): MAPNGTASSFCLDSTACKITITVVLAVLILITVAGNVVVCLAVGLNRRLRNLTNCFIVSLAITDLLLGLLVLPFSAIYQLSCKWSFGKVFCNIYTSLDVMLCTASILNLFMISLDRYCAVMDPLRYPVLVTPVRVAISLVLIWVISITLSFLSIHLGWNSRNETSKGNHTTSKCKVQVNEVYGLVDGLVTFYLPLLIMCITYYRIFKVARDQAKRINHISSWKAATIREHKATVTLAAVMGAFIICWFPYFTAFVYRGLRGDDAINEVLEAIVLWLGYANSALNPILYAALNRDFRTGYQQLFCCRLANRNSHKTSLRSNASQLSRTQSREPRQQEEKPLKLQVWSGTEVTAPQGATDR

reflux esophagitis = conditions: patients with reflux esophagitis

SMILES: CC(=O)Nc1ccc(O)cc1 [Acetaminophen]
- duration of effects (pain or fever; in vivo): between two and four hours

SMILES: CC(=O)Oc1ccccc1C(=O)O [Aspirin, acetylsalicylic acid]
- time until effects begin (pain or fever; for pain or fever): ≤ 30 min

SMILES: COc1ccc2cc([C@H](C)C(=O)O)ccc2c1 [Naproxen]
- associated risk of stroke compared with ibuprofen (risk of stroke): roughly 50%
- suppression of platelet thromboxane (platelet thromboxane): near-complete suppression

SMILES: CN1[C@@H]2C[C@@H](OC(=O)[C@H](CO)c3ccccc3)C[C@H]1[C@@H]1O[C@@H]12 [Scopolamine]
- duration of effectiveness of patch (motion sickness): three days

SMILES: O=C([O-])O.[Na+] [Sodium bicarbonate, sodium hydrogen carbonate]
- effect on blood pressure (blood pressure): no effect

- times more potent than cimetidine (histamine H2 receptors): ~20 times
- times more potent than nizatidine (histamine H2 receptors): approximately 7.5 times
- times more potent than ranitidine (histamine H2 receptors): approximately 7.5 times
SMILES: NC(N)=Nc1nc(CSCCC(N)=NS(N)(=O)=O)cs1 [famotidine]

SMILES: CNC(=C[N+](=O)[O-])NCCSCc1csc(CN(C)C)n1 [nizatidine]
- effectiveness as maintenance therapy versus famotidine (reflux esophagitis): more effective H2RA than famotidine
